Test results from PubChem BioAssay (NCI).
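Step 1: Grow cells in 96-well plates. Step 2: Expose to compound for 48 hours at 5 concentrations. Step 3: Interpolate endpoints linearly; if unreached, use highest concentration. The concentration for full growth arrest is given as TGI.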

Tests used:
Test in all cases: DTP human tumour cell line panel, 48 h
A498 renal = test system: A498 renal
ACHN renal = test system: ACHN renal
EKVX NSCLC = test system: EKVX NSCLC
HCT-116 colon = test system: HCT-116 colon
HCT-15 colon = test system: HCT-15 colon
HL-60(TB) leukemia = test system: HL-60(TB) leukemia
HOP-62 NSCLC = test system: HOP-62 NSCLC
HOP-92 NSCLC = test system: HOP-92 NSCLC
HT29 colon = test system: HT29 colon
IGROV1 ovarian = test system: IGROV1 ovarian
KM12 colon = test system: KM12 colon
MOLT-4 leukemia = test system: MOLT-4 leukemia
NCI-H226 lung = test system: NCI-H226 lung
OVCAR-4 ovarian = test system: OVCAR-4 ovarian
SK-MEL-2 melanoma = test system: SK-MEL-2 melanoma
SR leukemia = test system: SR leukemia
NCI-H522 lung = test system: NCI-H522 lung
HS 578T breast = test system: HS 578T breast
T-47D breast = test system: T-47D breast
MDA-N = test system: MDA-N

Row | Structure (SMILES) | TGI (A498 renal) [µM] | TGI (ACHN renal) [µM] | TGI (EKVX NSCLC) [µM] | TGI (HCT-116 colon) [µM] | TGI (HCT-15 colon) [µM] | TGI (HL-60(TB) leukemia) [µM] | TGI (HOP-62 NSCLC) [µM] | TGI (HOP-92 NSCLC) [µM] | TGI (HT29 colon) [µM] | TGI (IGROV1 ovarian) [µM] | TGI (KM12 colon) [µM] | TGI (MOLT-4 leukemia) [µM] | TGI (NCI-H226 lung) [µM] | TGI (OVCAR-4 ovarian) [µM] | TGI (SK-MEL-2 melanoma) [µM] | TGI (SR leukemia) [µM] | TGI (NCI-H522 lung) [µM] | TGI (HS 578T breast) [µM] | TGI (T-47D breast) [µM] | TGI (MDA-N) [µM]
1 | CSc1cnc2ccccc2c1Sc1cn(C)c2ccccc2c1=O | > 100 | > 100 | > 100 | > 100 | > 100 | > 100 | 57.3 | 67 | > 100 | > 100 | > 100 | > 100 | 73.8 | > 100 | > 100 | > 100 |  |  |  | 
2 | Cc1[nH]n(C(=O)Cc2ccccc2)c(=O)c1/C=C1\C(=O)C=Cc2ccccc21 |  | > 100 | > 100 | > 100 | > 100 | > 100 | > 100 |  | > 100 |  | > 100 | > 100 | > 100 | > 100 |  | > 100 | > 100 |  |  | 
3 | CCCCCCCCCCCCCCCCCCCCCCC(=O)N[C@H]1CCc2cc(OC)c(OC)c(OC)c2-c2ccc(SC)c(=O)cc21 | 40.7 | > 100 | > 100 | 69.3 | 71 | 48.9 | > 100 | > 100 | 99 | > 100 | > 100 | > 100 | 8.23 | > 100 |  | 81.9 | 33.1 |  |  | 
4 | C/C(=C\COP(=O)(O)CP(=O)(O)O)CC/C=C(\C)CNc1ccccc1 |  | > 100 | 30.3 | > 100 | > 100 | > 100 | > 100 |  | > 100 | > 100 | > 100 | > 100 | > 100 |  | > 100 |  | > 100 | > 100 | > 100 | 
5 | C/C(=N\NC(N)=O)C(CN1CCOCC1)C(c1ccccc1)c1c(O)c2ccccc2oc1=O (centres undefined) | 91.8 | > 100 | > 100 | > 100 | > 100 | > 100 |  | > 100 | > 100 | > 100 | > 100 | > 100 | > 100 | > 100 | > 100 | > 100 | > 100 | > 100 |  | > 100
6 | CCOC(=O)c1cn2c(n1)sc1cc([N+](=O)[O-])ccc12 | > 100 | > 100 | > 100 | > 100 | > 100 |  | > 100 | > 100 | > 100 | > 100 | > 100 | > 100 | > 100 | > 100 | > 100 | > 100 | > 100 | > 100 | > 100 | 
7 | N#CC(C#N)=CNC(=S)Nc1ccc(S(=O)(=O)Nc2nccs2)cc1 | > 100 | > 100 | > 100 | > 100 | > 100 | > 100 | > 100 | > 100 | > 100 | > 100 | > 100 | > 100 | > 100 | > 100 | > 100 |  |  |  | > 100 | > 100
8 | COc1ccc(Cc2c3cc(OC)c(OC)cc3cc[n+]2C)cc1 | > 100 | > 49.9 | > 59 | > 24.8 | > 52.8 | > 100 | > 48.7 | 58.7 | > 27.1 | > 69.4 | > 23 | > 100 | > 51.9 | > 40.5 | > 45.8 | > 100 | > 85.9 |  |  | 
9 | CCn1c(O)c(C(=O)Nc2cccs2)c(=O)n(CC)c1=S | 36.8 | 63.2 |  | 37.3 | 41.7 | 40 | 47.6 | 47.8 | 31.9 | 60.9 | 32.6 | 59.8 | 56.8 | 70.9 | 32.8 | > 100 | 38.4 |  |  | 
10 | CC(=O)NNc1nc(C)c(C(=O)NNC(=O)C(=O)Nc2ccc(C)cc2[N+](=O)[O-])s1 | > 100 | > 100 | > 100 | > 100 | > 100 | > 100 | > 100 | > 100 | > 100 | > 100 | > 100 | > 100 | > 100 | > 100 | > 100 | > 100 | 78 |  |  | 
11 | Cn1c2ccccc2n2c3ccccc3c3nnc(N)c-3c12 | > 100 | > 100 | > 100 | > 100 | > 100 | > 100 | > 86.5 | > 100 | > 100 | > 100 | > 100 | > 100 | > 100 | > 100 | > 79.5 | > 100 | 26.2 | 10.8 | 12.9 | 
12 | COc1cccc(O)c1-c1cc(=O)c2c(O)c(OC)c(OC)c(OC)c2o1 |  | > 100 | > 100 | > 100 | > 100 | 46.7 | 44.4 | 82.8 | 91 | > 100 | 77.8 | 97.7 | > 100 | > 100 | 52.4 | 40.1 | 87.9 | > 100 |  | 49.2
13 | COC(=O)N1C=Cc2c(c(C)c3c([nH]c4ccccc43)c2C)C1C (centres undefined) | 28.8 |  | 32.1 | 25.6 | 26.4 | 52 | 34.5 | 36.5 | 26.5 | 48.7 |  | 43.3 | 35.7 | 26.1 | 34 |  |  |  |  | 
14 | O=c1ccn([C@@H]2C[C@H](CO)CS(=O)C2)c(=O)[nH]1 (some centres undefined) | > 100 | > 100 | > 100 | > 100 | > 100 | > 100 | > 100 | > 100 | > 100 | > 100 | > 100 | > 100 | > 100 | > 100 | > 100 |  | > 100 |  |  | 
15 | N#CC(NNC(=O)c1ccccc1O)c1ccccc1O (centres undefined) |  | > 100 |  | > 100 | > 100 | > 100 | > 100 | > 100 | > 100 | > 100 | > 100 | > 100 | 25.1 | > 100 | > 100 | > 100 | > 100 |  |  | 
16 | NC(Cc1c2ccccc2cc2ccccc12)C(=O)O (centres undefined) |  | > 100 | > 100 | > 100 | > 100 | > 100 | > 100 | > 100 | > 100 | > 100 | > 100 | 94.4 | > 100 | > 100 | > 100 | > 100 | > 100 |  | > 100 | 
17 | CCCCc1c2c([n+]([O-])c3c1CCCC3)CCCC2 |  | 43.1 | > 100 | > 100 | > 100 | > 100 | > 100 |  | > 100 | > 100 | > 100 | > 100 | > 100 |  |  | > 100 | 5.33 |  |  | 
18 | CC1CC(=O)C(CC(=O)O)[C@H]1C(C(=O)C(=O)Nc1cc(Cl)ccc1Cl)[N+](=O)[O-] (some centres undefined) | > 100 | > 100 | > 100 |  | > 100 | > 100 | > 100 | > 100 | > 100 | > 100 | > 100 |  | > 100 |  |  | > 100 | > 100 |  |  | 
19 | CC(=O)OC1=C(c2ccccc2)S(=O)(=O)c2ccccc21 | > 100 | > 100 | > 100 | > 100 | > 100 | > 100 | > 100 | > 100 | > 100 | > 100 | > 100 | > 100 | > 100 | > 100 | > 100 | > 100 | > 100 | > 100 | > 100 | 
20 | C/C(=C/C(=O)N(C)c1ccccc1Cl)O[Si](C(C)C)(C(C)C)C(C)C |  |  | 75.3 | 34.2 | 37.1 |  | 74.4 | 31.1 | 34 | 59.7 | > 100 | > 100 | 34.5 | > 100 |  |  | 31.8 |  | > 100 | 68.7
21 | CC1=C(C(N)=O)C(c2ccncc2)C(C#N)C(=O)N1 (centres undefined) | > 100 | > 100 | > 100 | > 100 | > 100 | > 100 | > 100 | > 100 |  | > 100 | > 100 | > 100 |  | > 100 | > 100 | > 100 |  | > 100 | > 100 | 
22 | COC(=O)c1c(O)ccc2c1c1c(n2CCc2ccccc2)C(=O)c2ccccc2C1 | 40.5 |  |  | 35.8 | 63.8 | 65.3 | 52.3 | 30.9 | 70.4 | 46 | > 100 | > 100 | 40 | 41.4 | 40.5 | > 100 |  | > 100 |  | > 100
23 | CCOc1cc(NC(C)=O)ccc1C(=O)NN1C(=O)/C(=C/c2ccc(Cl)cc2)N=C1c1ccccc1 | 81.4 | > 100 | > 100 | > 100 | > 100 | 89.6 | > 100 | > 100 | > 100 | > 100 | > 100 | > 100 | > 100 | > 100 | > 100 | > 100 |  |  | 77.1 | > 100
24 | O=C(O)OC12CCCCCC1C(=O)C1CCCCC12 (centres undefined) |  | > 100 | > 100 | > 100 | > 100 | > 100 | > 100 |  | > 100 |  | > 100 | > 100 | > 100 | > 100 | > 100 | > 100 | > 100 |  |  | 
25 | CC(=O)Nc1ccc2c3c(cc(O)c2c1)N(C(=O)CCCCCCC(=O)Nc1ccc2c4c(cc(O)c2c1)N(C(=O)OC(C)(C)C)CC4CCl)CC3CCl (centres undefined) | 0.0819 | 0.465 | 1.08 | 11.9 | > 38.5 | 0.241 | 3.45 | 4.11 |  | > 33.8 | 0.804 | > 100 | 0.463 | 3.98 | 0.0593 | 0.0243 | 0.405 |  | 2.3 | 0.332
26 | c1ccc2sc(C3(N4CCCCCC4)CCCCC3)cc2c1 | 36.8 | 83.8 | 43.9 | 52.1 | 53.6 | 40.9 | 86.8 | 80 | 36.8 | > 100 | 31.8 | 31.5 | 42.9 | > 100 |  |  | 36.4 | 44.7 |  | 97.6
27 | CC12CCC(C(=Nc3ccc([N+](=O)[O-])cc3)C1=O)C2(C)C (centres undefined) | > 100 | > 100 | > 100 | > 100 | > 100 |  | 81.9 |  | > 100 | 57.3 | 92.9 |  | > 100 | 69.8 | 49.2 | 59.3 |  |  | 69.5 | 
28 | CSC(SC)=C1Sc2cccc(Cl)c2S1 | > 100 | > 100 | > 100 | > 100 | > 100 | 45.9 | > 100 | 65.8 | > 100 | > 100 | > 100 | > 100 | > 100 | > 100 | 48.8 |  | 63.8 |  |  | 
